According to ChEMBL document CHEMBL4507278 (2021):

Tests used:
[1] = tested on: Leucine-rich repeat serine/threonine-protein kinase 2 (Homo sapiens), Q5S007 [G2019S]; conditions: Compound concentration 1000.0 nM
[2] = tested on: Phosphatidylinositol 4,5-bisphosphate 3-kinase catalytic subunit alpha isoform (Homo sapiens), P42336 [E542K]; conditions: Compound concentration 1000.0 nM
[3] = target: SRSF protein kinase 1 (Homo sapiens) (UniProt Q96SB4); conditions: Compound concentration 1000.0 nM
[4] = target: Tyrosine-protein kinase JAK1 (Homo sapiens) (UniProt P23458); conditions: Compound concentration 1000.0 nM
[5] = target: Rho-associated protein kinase 2 (Homo sapiens) (UniProt O75116); conditions: Compound concentration 1000.0 nM
[6] = target: Tyrosine-protein kinase Yes (Homo sapiens) (UniProt P07947); conditions: Compound concentration 1000.0 nM
[7] = target: Calcium/calmodulin-dependent protein kinase kinase 2 (Homo sapiens) (UniProt Q96RR4); conditions: Compound concentration 1000.0 nM
[8] = target: Cyclin-dependent kinase 19 (Homo sapiens) (UniProt Q9BWU1); conditions: Compound concentration 1000.0 nM
[9] = target: 5-hydroxytryptamine receptor 1B (Homo sapiens) (UniProt P28222); conditions: Compound concentration 10.0 uM
[10] = target: Calcium/calmodulin-dependent protein kinase type 1D (Homo sapiens) (UniProt Q8IU85); conditions: Compound concentration 1000.0 nM
[11] = tested on: Phosphatidylinositol 4,5-bisphosphate 3-kinase catalytic subunit alpha isoform (Homo sapiens), P42336 [H1047L]; conditions: Compound concentration 1000.0 nM
[12] = target: Mitogen-activated protein kinase kinase kinase kinase 4 (Homo sapiens) (UniProt O95819); conditions: Compound concentration 1000.0 nM
[13] = target: Cytoplasmic tyrosine-protein kinase BMX (Homo sapiens) (UniProt P51813); conditions: Compound concentration 1000.0 nM
[14] = tested on: Tyrosine-protein kinase ABL1 (Homo sapiens), P00519 [Y253F]; conditions: Compound concentration 1000.0 nM
[15] = target: MAP kinase-interacting serine/threonine-protein kinase 1 (Homo sapiens) (UniProt Q9BUB5); conditions: Compound concentration 1000.0 nM
[16] = target: Inhibitor of nuclear factor kappa-B kinase subunit epsilon (Homo sapiens) (UniProt Q14164); conditions: Compound concentration 1000.0 nM
[17] = target: Serine/threonine-protein kinase MARK1 (Homo sapiens) (UniProt Q9P0L2); conditions: Compound concentration 1000.0 nM
[18] = target: Activin receptor type-1 (Homo sapiens) (UniProt Q04771); conditions: Compound concentration 1000.0 nM
Sequence of Activin receptor type-1 (Homo sapiens) (Q04771 whole entry): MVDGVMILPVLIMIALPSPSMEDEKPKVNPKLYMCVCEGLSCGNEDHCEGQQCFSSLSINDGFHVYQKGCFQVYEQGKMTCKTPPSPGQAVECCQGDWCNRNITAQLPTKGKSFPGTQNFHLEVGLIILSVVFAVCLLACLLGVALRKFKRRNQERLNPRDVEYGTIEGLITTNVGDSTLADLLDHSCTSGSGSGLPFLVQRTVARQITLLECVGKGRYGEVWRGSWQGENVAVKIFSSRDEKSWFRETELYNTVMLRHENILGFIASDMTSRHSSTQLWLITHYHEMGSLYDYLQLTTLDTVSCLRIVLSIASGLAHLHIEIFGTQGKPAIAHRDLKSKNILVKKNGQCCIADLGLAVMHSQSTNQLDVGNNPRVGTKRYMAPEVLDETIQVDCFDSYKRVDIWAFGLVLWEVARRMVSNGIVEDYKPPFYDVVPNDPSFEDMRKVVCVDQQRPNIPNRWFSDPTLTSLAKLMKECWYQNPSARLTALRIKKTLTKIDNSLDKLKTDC

[19] = target: Serine/threonine-protein kinase BRSK1 (Homo sapiens) (UniProt Q8TDC3); conditions: Compound concentration 1000.0 nM
Sequence of Serine/threonine-protein kinase BRSK1 (Homo sapiens) (Q8TDC3 whole entry): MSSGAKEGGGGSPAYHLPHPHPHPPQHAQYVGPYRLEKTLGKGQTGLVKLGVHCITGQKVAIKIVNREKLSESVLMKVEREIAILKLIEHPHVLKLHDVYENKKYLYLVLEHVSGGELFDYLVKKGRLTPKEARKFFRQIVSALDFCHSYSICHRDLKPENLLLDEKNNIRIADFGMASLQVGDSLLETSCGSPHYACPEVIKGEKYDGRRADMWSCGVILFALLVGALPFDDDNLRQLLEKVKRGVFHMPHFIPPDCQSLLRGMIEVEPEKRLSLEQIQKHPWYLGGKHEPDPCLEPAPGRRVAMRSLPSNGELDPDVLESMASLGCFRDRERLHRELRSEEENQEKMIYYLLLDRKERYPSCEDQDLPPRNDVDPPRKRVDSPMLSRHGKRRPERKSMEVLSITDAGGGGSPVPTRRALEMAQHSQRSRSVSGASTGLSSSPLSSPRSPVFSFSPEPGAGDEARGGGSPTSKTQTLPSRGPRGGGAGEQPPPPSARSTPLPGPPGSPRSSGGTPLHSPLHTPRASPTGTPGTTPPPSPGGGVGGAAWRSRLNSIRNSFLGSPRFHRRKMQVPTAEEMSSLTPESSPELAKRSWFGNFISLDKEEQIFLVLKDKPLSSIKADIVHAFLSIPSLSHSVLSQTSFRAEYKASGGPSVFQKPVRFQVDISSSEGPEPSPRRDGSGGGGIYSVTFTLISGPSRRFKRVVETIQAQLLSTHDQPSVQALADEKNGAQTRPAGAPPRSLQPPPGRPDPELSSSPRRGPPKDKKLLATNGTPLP

[20] = target: Mitogen-activated protein kinase kinase kinase 1 (Homo sapiens) (UniProt Q13233); conditions: Compound concentration 1000.0 nM
Sequence of Mitogen-activated protein kinase kinase kinase 1 (Homo sapiens) (Q13233 whole entry): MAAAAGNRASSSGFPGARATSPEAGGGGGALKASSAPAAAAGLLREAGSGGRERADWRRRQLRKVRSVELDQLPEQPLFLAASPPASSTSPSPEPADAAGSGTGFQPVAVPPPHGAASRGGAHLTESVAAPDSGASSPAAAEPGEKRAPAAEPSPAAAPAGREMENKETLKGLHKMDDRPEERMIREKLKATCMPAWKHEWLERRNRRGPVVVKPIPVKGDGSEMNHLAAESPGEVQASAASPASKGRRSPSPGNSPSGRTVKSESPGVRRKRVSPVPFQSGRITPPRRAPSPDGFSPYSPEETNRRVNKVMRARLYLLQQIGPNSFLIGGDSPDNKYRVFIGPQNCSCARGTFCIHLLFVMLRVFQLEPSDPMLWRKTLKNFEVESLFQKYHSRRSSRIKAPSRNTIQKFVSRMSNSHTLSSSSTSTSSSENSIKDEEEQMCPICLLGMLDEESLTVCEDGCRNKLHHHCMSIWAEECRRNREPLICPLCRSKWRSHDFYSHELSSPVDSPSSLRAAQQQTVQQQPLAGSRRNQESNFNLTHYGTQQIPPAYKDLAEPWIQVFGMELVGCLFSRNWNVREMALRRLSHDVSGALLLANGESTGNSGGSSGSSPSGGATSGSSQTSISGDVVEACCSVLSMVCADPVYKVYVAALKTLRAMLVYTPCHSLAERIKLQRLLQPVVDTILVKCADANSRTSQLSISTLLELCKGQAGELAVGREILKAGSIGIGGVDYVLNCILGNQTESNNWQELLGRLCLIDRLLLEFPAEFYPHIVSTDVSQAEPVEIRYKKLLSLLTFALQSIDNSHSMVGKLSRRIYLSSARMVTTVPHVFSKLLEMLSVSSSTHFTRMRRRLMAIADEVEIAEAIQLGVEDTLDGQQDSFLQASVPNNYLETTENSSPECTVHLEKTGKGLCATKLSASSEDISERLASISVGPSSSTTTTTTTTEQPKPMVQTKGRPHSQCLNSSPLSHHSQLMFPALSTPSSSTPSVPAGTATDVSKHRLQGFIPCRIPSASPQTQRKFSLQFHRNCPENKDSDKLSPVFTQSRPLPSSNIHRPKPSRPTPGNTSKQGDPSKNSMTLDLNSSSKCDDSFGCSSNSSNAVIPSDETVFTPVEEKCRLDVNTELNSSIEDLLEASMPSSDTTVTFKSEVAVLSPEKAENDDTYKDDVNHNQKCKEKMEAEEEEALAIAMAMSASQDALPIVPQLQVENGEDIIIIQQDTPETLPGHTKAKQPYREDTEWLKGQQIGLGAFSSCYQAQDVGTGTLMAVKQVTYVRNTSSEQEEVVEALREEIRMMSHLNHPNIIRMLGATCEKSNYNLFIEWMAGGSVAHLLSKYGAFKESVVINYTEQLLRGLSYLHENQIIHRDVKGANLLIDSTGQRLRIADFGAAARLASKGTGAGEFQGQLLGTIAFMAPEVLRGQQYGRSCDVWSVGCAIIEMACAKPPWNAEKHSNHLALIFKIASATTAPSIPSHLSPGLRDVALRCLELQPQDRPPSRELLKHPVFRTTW

[21] = target: Tyrosine-protein kinase TXK (Homo sapiens) (UniProt P42681); conditions: Compound concentration 1000.0 nM
Sequence of Tyrosine-protein kinase TXK (Homo sapiens) (P42681 whole entry): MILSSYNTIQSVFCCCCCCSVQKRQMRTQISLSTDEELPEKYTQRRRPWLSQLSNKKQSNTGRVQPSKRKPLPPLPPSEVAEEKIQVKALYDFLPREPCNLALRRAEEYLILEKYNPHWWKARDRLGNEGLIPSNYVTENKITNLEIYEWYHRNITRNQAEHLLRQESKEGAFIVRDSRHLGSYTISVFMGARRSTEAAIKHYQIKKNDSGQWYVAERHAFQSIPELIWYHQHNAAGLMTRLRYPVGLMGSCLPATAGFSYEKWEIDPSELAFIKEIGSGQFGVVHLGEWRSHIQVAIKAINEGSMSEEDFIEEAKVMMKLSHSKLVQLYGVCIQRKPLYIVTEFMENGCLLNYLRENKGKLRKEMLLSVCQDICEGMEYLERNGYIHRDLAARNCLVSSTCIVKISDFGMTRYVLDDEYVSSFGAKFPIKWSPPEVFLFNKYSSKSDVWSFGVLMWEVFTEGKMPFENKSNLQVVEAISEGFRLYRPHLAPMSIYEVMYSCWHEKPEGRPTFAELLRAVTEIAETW

[22] = target: GABA-A receptor; anion channel (Rattus norvegicus) (UniProt O09028+P15431+P18506+P18508+P19969+P20236+P23574+P23576+P28471+P28473+P30191+P62813+P63079+P63138+Q91ZM7+Q9ES14); conditions: Compound concentration 10.0 uM
[23] = tested on: Epidermal growth factor receptor (Homo sapiens), P00533 [G719C]; conditions: Compound concentration 1000.0 nM
[24] = target: Aurora kinase B (Homo sapiens) (UniProt Q96GD4); conditions: Compound concentration 1000.0 nM
[25] = target: Serine/threonine-protein kinase 3 (Homo sapiens) (UniProt Q13188); conditions: Compound concentration 1000.0 nM
[26] = target: Calcium/calmodulin-dependent protein kinase type 1G (Homo sapiens) (UniProt Q96NX5); conditions: Compound concentration 1000.0 nM
[27] = tested on: Receptor-type tyrosine-protein kinase FLT3 (Homo sapiens), P36888 [K663Q]; conditions: Compound concentration 1000.0 nM
[28] = target: Bone morphogenetic protein receptor type-1A (Homo sapiens) (UniProt P36894); conditions: Compound concentration 1000.0 nM
[29] = target: Serine/threonine-protein kinase MARK2 (Homo sapiens) (UniProt Q7KZI7); conditions: Compound concentration 1000.0 nM
Sequence of Serine/threonine-protein kinase MARK2 (Homo sapiens) (Q7KZI7 whole entry): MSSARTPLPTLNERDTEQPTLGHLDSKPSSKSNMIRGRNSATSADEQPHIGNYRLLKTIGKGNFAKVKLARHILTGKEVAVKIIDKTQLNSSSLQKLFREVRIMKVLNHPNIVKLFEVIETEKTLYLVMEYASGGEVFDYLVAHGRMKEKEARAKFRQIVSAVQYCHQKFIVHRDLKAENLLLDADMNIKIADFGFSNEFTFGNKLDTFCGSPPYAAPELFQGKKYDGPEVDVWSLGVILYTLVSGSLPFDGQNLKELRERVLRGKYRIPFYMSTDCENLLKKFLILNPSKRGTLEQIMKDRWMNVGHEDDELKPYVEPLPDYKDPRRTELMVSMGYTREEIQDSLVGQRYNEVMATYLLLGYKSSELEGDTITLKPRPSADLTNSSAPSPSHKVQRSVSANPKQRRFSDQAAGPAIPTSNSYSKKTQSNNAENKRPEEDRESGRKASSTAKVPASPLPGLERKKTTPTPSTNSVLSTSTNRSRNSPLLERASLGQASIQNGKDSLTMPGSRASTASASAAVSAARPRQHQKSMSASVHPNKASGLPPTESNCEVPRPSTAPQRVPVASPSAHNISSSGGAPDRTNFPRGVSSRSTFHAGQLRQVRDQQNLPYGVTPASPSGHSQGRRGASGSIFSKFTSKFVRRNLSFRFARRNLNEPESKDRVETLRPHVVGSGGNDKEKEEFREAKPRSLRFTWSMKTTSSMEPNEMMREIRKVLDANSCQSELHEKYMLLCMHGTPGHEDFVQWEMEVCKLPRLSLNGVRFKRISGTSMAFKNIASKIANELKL

[30] = target: TRAF2 and NCK-interacting protein kinase (Homo sapiens) (UniProt Q9UKE5); conditions: Compound concentration 1000.0 nM
[31] = target: Serine/threonine-protein kinase DCLK2 (Homo sapiens) (UniProt Q8N568); conditions: Compound concentration 1000.0 nM
Sequence of Serine/threonine-protein kinase DCLK2 (Homo sapiens) (Q8N568 whole entry): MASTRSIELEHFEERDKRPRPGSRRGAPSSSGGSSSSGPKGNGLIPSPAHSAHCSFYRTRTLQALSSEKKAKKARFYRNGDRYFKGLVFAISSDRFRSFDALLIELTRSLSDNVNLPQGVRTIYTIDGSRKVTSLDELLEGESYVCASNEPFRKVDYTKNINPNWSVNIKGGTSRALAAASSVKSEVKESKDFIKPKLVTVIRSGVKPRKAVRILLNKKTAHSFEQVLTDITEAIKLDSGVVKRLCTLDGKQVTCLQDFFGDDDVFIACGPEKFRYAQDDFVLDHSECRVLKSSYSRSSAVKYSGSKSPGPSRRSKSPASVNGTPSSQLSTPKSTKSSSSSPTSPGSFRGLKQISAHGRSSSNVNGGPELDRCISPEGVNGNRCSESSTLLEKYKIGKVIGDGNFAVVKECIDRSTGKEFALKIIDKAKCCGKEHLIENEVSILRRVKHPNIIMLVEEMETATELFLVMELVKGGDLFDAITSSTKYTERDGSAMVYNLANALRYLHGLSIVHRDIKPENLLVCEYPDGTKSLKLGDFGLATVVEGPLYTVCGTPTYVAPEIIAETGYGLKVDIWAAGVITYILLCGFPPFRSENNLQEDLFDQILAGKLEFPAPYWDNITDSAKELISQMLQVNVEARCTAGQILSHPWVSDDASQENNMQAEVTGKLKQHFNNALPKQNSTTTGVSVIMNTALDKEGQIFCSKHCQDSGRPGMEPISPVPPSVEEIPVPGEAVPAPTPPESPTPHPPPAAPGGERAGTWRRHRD

[32] = target: D(1B) dopamine receptor (Homo sapiens) (UniProt P21918); conditions: Compound concentration 10.0 uM
[33] = target: SRSF protein kinase 3 (Homo sapiens) (UniProt Q9UPE1); conditions: Compound concentration 1000.0 nM
[34] = target: Ankyrin repeat and protein kinase domain-containing protein 1 (Homo sapiens) (UniProt Q8NFD2); conditions: Compound concentration 1000.0 nM
[35] = target: Tyrosine-protein kinase Fyn (Homo sapiens) (UniProt P06241); conditions: Compound concentration 1000.0 nM
[36] = target: Serine/threonine-protein kinase BRSK2 (Homo sapiens) (UniProt Q8IWQ3); conditions: Compound concentration 1000.0 nM
[37] = target: Serine/threonine-protein kinase OSR1 (Homo sapiens) (UniProt O95747); conditions: Compound concentration 1000.0 nM
[38] = tested on: Receptor-type tyrosine-protein kinase FLT3 (Homo sapiens), P36888 [UNDEFINED MUTATION]; conditions: Compound concentration 1000.0 nM
[39] = target: Ephrin type-B receptor 3 (Homo sapiens) (UniProt P54753); conditions: Compound concentration 1000.0 nM
[40] = target: Delta-type opioid receptor (Homo sapiens) (UniProt P41143); conditions: Compound concentration 10.0 uM
[41] = tested on: Mast/stem cell growth factor receptor Kit (Homo sapiens), P10721 [D816H]; conditions: Compound concentration 1000.0 nM
[42] = target: Epidermal growth factor receptor (Homo sapiens) (UniProt P00533); conditions: Compound concentration 1000.0 nM
[43] = target: Tyrosine-protein kinase JAK2 (Homo sapiens) (UniProt O60674); conditions: Compound concentration 1000.0 nM

SMILES: CS(=O)(=O)c1cc(C2(NC(=O)c3cncc4c3cnn4-c3ccc(F)cc3)CC2)ccn1 [BI 639667]
- residual activity [1]: 100%
- residual activity [2]: 80%
- residual activity [3]: 100%
- residual activity [4]: 96%
- residual activity [5]: 75%
- residual activity [6]: 100%
- residual activity [7]: 75%
- residual activity [8]: 91%
- inhibition [9]: 13.5%
- residual activity [10]: 90%
- residual activity [11]: 100%
- residual activity [12]: 88%
- residual activity [13]: 100%
- residual activity [14]: 91%
- residual activity [15]: 47%
- residual activity [16]: 100%
- residual activity [17]: 100%
- residual activity [18]: 100%
- residual activity [19]: 74%
- residual activity [20]: 100%
- residual activity [21]: 89%
- inhibition [22]: 6.63%
- residual activity [23]: 100%
- residual activity [24]: 88%
- residual activity [25]: 100%
- residual activity [26]: 100%
- residual activity [27]: 100%
- residual activity [28]: 100%
- residual activity [29]: 100%
- residual activity [30]: 95%
- residual activity [31]: 100%
- inhibition [32]: -0.37%
- residual activity [33]: 100%
- residual activity [34]: 96%
- residual activity [35]: 55%
- residual activity [36]: 84%
- residual activity [37]: 85%
- residual activity [38]: 58%
- residual activity [39]: 100%
- inhibition [40]: -5.92%
- residual activity [41]: 49%
- residual activity [42]: 100%
- residual activity [43]: 100%

SMILES: CS(=O)(=O)NCC[C@H](NC(=O)c1cncc2c1cnn2-c1ccc(F)cc1)c1ccnc(S(C)(=O)=O)c1 [BI 9307]
- residual activity [1]: 92%
- residual activity [2]: 66%
- residual activity [3]: 83%
- residual activity [4]: 96%
- residual activity [5]: 100%
- residual activity [6]: 100%
- residual activity [7]: 100%
- residual activity [8]: 80%
- inhibition [9]: 47.7%
- residual activity [10]: 98%
- residual activity [11]: 77%
- residual activity [12]: 86%
- residual activity [13]: 100%
- residual activity [14]: 95%
- residual activity [15]: 95%
- residual activity [16]: 78%
- residual activity [17]: 92%
- residual activity [18]: 100%
- residual activity [19]: 99%
- residual activity [20]: 100%
- residual activity [21]: 84%
- inhibition [22]: 23.5%
- residual activity [23]: 99%
- residual activity [24]: 100%
- residual activity [25]: 100%
- residual activity [26]: 100%
- residual activity [27]: 100%
- residual activity [28]: 92%
- residual activity [29]: 75%
- residual activity [30]: 100%
- residual activity [31]: 100%
- inhibition [32]: 36%
- residual activity [33]: 100%
- residual activity [34]: 100%
- residual activity [35]: 100%
- residual activity [36]: 77%
- residual activity [37]: 88%
- residual activity [38]: 99%
- residual activity [39]: 100%
- inhibition [40]: -2.19%
- residual activity [41]: 100%
- residual activity [42]: 84%
- residual activity [43]: 100%
